The results in this text go back to PubChem BioAssay (NCI).

Holding throughout (experiment): growth of human tumour cells (NCI), 48 h
The test system of assay [1] is CCRF-CEM leukemia.
Assay [2] has as its system EKVX NSCLC.
The subject of assay [3] is HOP-62 NSCLC.
The test system of assay [4] is IGROV1 ovarian.
The test system of assay [5] is MCF7 breast.
Assay [6] deals with NCI-H23 lung.
Assay [7] relates to NCI-H460 lung.
The subject of assay [8] is NCI/ADR-RES ovarian.
Assay [9] has as its system OVCAR-3 ovarian.
In assay [10] the test system is OVCAR-8 ovarian.
Assay [11] concerns RPMI-8226 leukemia.
For assay [12], the system named is RXF 393 renal.
In assay [13] the test system is SF-268 CNS.
The test system of assay [14] is TK-10 renal.
Assay [15] relates to U251 CNS.

Values joined by “and” are separate entries in the source; they are usually repeats but may differ in a detail not shown here. Equal entries are not always repeated.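 Method: 48-hour compound exposure of cells in 96-well plates, five concentrations, linear interpolation of endpoints. At the GI50, growth is halved. TGI: concentration producing complete growth inhibition.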

For `COC1OC2COC(c3ccccc3)OC2C(O)C1OC(=S)c1ccccc1` (stereo not given), the TGI was 48.5 µM in assay [1]; 51.7 µM in assay [2]; 91.4 µM in assay [3]; over 100 µM in [4]; over 100 µM in [5]; over 100 µM in assay [6]. Besides, the TGI in assay [7] was over 100 µM; in assay [8], over 100 µM; in assay [9], over 100 µM; in assay [10], over 100 µM; in assay [11], 36.5 µM; in [12] it was over 100 µM. Moreover, the TGI in assay [13] was over 100 µM; in assay [14], over 100 µM; in assay [15] it was 12.9 µM.
Turning to `OC(C#CCN1CCCC1)(c1ccccc1)c1ccccc1Cl` (stereo not given), the TGI was over 100 µM in assay [1]; over 100 µM in assay [2]; 38.7 µM in assay [3]; 73.6 µM in assay [4]; 32.9 µM in [5]; over 100 µM in [6]. Further, the TGI in assay [7] was 41.5 µM; in [8], 94.8 µM; in assay [9] it was over 100 µM; in [10], over 100 µM; in [11], over 100 µM; in [12] it was over 100 µM. Also, the TGI was over 100 µM in [13], over 100 µM in assay [14] and 35.2 µM in assay [15].
`O=C1N(Cc2ccccc2)C2CSCC2N1Cc1ccccc1` (stereo not given): the TGI was over 100 µM in assay [1]; 79.3 µM in assay [2]; 58.3 µM in [3]; over 100 µM in [4]; over 100 µM in assay [5]; 85 µM in assay [6]. In addition, the TGI is 55.8 µM in assay [7]; 69.4 µM in [8]; 43.9 µM in [9]; over 100 µM in [10]; 59 µM in [11]; 69.4 µM in assay [12]. For the same compound, the TGI in assay [13] was over 100 µM; in [14], 85.9 µM; in assay [15], over 100 µM.
Consider `COc1ccc2oc(=N)c(C(=O)Nc3ccccc3)cc2c1`, for which the TGI was 37.1 µM in [1]; over 100 µM in assay [2]; 41.7 µM in [3]; 97.4 µM in assay [4]; 33.2 µM in assay [5]; 51.8 µM in assay [6]. Also, the TGI in assay [7] was over 100 µM; in assay [8] it was 44 µM; in assay [9], over 100 µM; in assay [10], 46 µM; in assay [11] it was 83 µM; in assay [12] it was 42.3 µM. The TGI in assay [13] is 53.9 µM; in assay [14], over 100 µM; in assay [15] it was 55.1 µM.
With `C/C1=C\[C@H](C)C[C@H](C)OC(=O)[C@H](C)NC(=O)[C@@H](Cc2ccc(O)c(Br)c2)N(C)C(=O)[C@H](C)NC(=O)[C@@H](C)C1`, the TGI in assay [1] is over 10.3 µM; in assay [2], over 4.7 µM; in assay [3], 0.112 µM; in assay [4], 0.105 µM; in assay [5], over 25 µM; in [6], over 25 µM. The TGI in assay [7] was over 19.5 µM; in [8], over 19.8 µM; in assay [9], 3.84 µM; in assay [10] it was over 7.69 µM; in assay [11] it was 0.604 µM; in assay [12] it was 0.858 µM. For the same compound, the TGI was 1.57 µM in [13], 0.269 µM in assay [14] and over 7.76 µM in [15].
Consider `C=CC1(C)CC(=O)C2(O)C(C)(O1)C(OC(C)=O)C(O)C1C(C)(C)CCC(O)C12C` (stereo not given), for which the GI50 in assay [1] is over 65.8 µM; in assay [3] it was over 83.2 µM; in [4] it was over 77.2 µM; in assay [11] it was over 57.2 µM; in [12], 4.98 µM. Further, the TGI was over 150 µM in assay [1]; over 150 µM in assay [2]; over 150 µM in assay [3]; over 121 µM in assay [4]; over 115 µM in assay [5]; over 150 µM in assay [6]. Moreover, the TGI was over 150 µM in assay [7]; over 130 µM in assay [8]; over 150 µM in assay [9]; over 150 µM in [10]; 120 µM in assay [11]; 90.6 µM and > 119 µM in assay [12]. Also, the TGI in assay [13] was over 150 µM; in [14] it was over 34.6 µM; in [15], over 94.6 µM.
